Laboratory results as given in ChEMBL document CHEMBL1201862, “PubChem BioAssay data set” (2004).
The source made the active and inactive calls. Cut-off read from the data, not from the text of the source: actives have a measured IC50 and inactives only a lower limit.

Target: Envelope glycoprotein gp160 (Human immunodeficiency virus 1, UniProt Q6QLK5)
Test: inhibitors of HIV fusion peptide binding, primary screen, biochemical, uHTS, fluorescence dequenching (AID 1986)

Chain of Envelope glycoprotein gp160 (Q6QLK5 whole entry, the tested form may be a part): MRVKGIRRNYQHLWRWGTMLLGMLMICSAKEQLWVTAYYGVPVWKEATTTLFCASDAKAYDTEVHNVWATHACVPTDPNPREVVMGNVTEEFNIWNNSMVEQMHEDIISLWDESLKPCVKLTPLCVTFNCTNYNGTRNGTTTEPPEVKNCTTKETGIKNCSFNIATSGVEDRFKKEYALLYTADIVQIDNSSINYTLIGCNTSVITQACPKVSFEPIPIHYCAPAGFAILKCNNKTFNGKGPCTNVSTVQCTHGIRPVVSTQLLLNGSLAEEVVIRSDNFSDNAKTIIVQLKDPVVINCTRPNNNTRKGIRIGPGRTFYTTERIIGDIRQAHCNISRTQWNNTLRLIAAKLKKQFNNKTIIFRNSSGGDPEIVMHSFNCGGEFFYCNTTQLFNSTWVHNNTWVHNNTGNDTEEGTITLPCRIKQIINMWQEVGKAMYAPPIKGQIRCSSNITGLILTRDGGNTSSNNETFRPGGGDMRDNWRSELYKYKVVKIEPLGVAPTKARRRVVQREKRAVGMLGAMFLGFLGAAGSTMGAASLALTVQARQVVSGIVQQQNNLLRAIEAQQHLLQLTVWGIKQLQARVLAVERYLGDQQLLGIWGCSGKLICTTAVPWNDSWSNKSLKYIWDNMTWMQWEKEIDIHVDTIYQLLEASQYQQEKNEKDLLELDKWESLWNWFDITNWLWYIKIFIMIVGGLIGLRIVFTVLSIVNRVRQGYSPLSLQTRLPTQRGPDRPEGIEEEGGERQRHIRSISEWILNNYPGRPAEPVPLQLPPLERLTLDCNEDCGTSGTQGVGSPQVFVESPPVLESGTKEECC

| Structure (SMILES) | IC50 |
| --- | --- |
| O=C(O)CSCC(=O)N(Cc1ccccc1)c1nc(-c2ccccc2)c(-c2ccccc2)s1 | 13.3 µM (active) |
| COc1ccc(NC(=O)c2cnn3c(O)cc(C4CCN(C(=O)OC(C)(C)C)CC4)nc23)cc1Cl | 16.6 µM (active) |
